“And” between values parts separate entries of the source, which are not always exact repeats. Equal values may be shown once.
Experiments:
[1] = Struck et al. 1966; cited from earlier work
P388 leukemia = assay: in vivo ip P388 lymphocytic leukemia mouse model (increase in lifespan); parameters: species or system mouse (B6D2F1); details: ip Days 1 through 5; figures separated by slashes are from separate experiments; ≥25 percent ILS considered active
Description: P388 lymphocytic leukemia is currently the most widely used animal tumor model for screening for antitumor agents and for detailed evaluation of active compounds. This tumor system is widely accepted as an antitumor agent screening tool because it is sensitive to virtually all of the clinically active antineoplastic agents; quantitative and reproducible; amenable for large-scale screening; and predictive for activity in other animal tumor models.
(§1) 10^6 P388 leukemia cells are inoculated ip in B6D2F1 mice. Twenty-four hours later, if the tumor inoculum proves to be free of bacterial contamination (as determined by 24 hours incubation in thioglycollate broth), animals are randomized into groups of 6 and housed in shoebox cages. The compound to be evaluated is dissolved in a minimal volume of either N,N-dimethylacetamide (DMA) or 95% ethanol (depending upon solubility). An equal volume of saline is added; if the drug comes out of solution an equal volume of polyethoxylated castor oil is added and then saline qs to a concentration such that the desired dose is delivered in 0.5 ml. The final concentration of DMA, ethanol and polyethoxylated castor oil is 10 percent. […] Animals are monitored daily for mortality and experiments are terminated after 45 days. […]

[2] = maximally tolerated dose in mice, ip qDx5 regimen (P388 experiment); format: in vivo, mouse (B62DF female); details: B62DF female mice
Experimental: as §1, with “percent. Dilutions for lower doses are made with saline so there is a decreasing proportion of organic solvents in the vehicle with decreasing dosage These vehicles provide soluble formulations (or suspensions). Formulations are prepared immediately prior to injection. The compound is administered ip on Days 1 through 5 (i.e. treatment is initiated 24 hrs after tumor inoculation). Each experiment includes three groups of 6 animals as untreated controls and animals treated with a positive control, cisplatin, at two dose levels.” for “percent.”

B16 melanoma = assay: in vivo ip B16 melanoma assay (increase in lifespan); parameters: species or system mouse (B6D2F1); details: ip daily for ten (10) days; ILS of ≥25% indicates activity
Experimental: (§2) In this system, groups of eight B6D2F1 mice are inoculated ip with 0.5 ml of a 10% (w:v) brei of B16 melanoma prepared from pooled sc tumors excised at 14-21 days from […] donor mice. Daily treatment is begun 24 hours after tumor implantation and is continued daily for ten (10) days. The route of drug administration is ip. The mice are monitored daily for survival for sixty (60) days. Antitumor activity is assessed by prolongation of median survival time. An ILS of ≥25% indicates activity in this tumor model.

[3] = maximally tolerated dose in mice, ip qD x 10 regimen (B16 experiment); format: in vivo, mouse (B6D2F1); details: B6D2F1 mice, ip qD × 10 regimen
Experimental: as §2
^(b) maximally tolerated dose for B6D2F1 mice on a ip qD ×

| Molecule | cytotoxic activity (in words) [1] | ILS (max): maximum increase in lifespan, mice bearing ip P388 leukemia (P388 leukemia) | MTD (maximally tolerated dose) [2] [mg/kg] | ILS: maximum increase in lifespan, mice bearing ip B16 melanoma (B16 melanoma) [%] | MTD (maximally tolerated dose) [3] [mg/kg] |
| --- | --- | --- | --- | --- | --- |
| c1ccc(P(CCP(c2ccccc2)c2ccccc2)c2ccccc2)cc1 [1,2-bis(diphenylphosphino)ethane] | cytotoxic activity |  |  |  |  |
| Dichlorobis[1,2-bis(diphenylphosphino)ethane]digold [Compound 1] |  | 81% and 91% and 55% | 8 | 35 | 4 |
| Dichlorobis[1,2-bis(diethylphosphino)ethane]digold [Compound 2] |  | 29% | 16 |  |  |

Reference: patent US4764509A, “Pharmaceutical compositions containing di-gold phosphine” (SmithKline Beckman Corporation, priority 1987, dated 1988)
